# Data: BindingDB's records for doi:10.3109/14756369709035812 (Universite Paul Sabatier, 1997)
# Target: T1, Hexokinase-1 (Saccharomyces cerevisiae (strain ATCC 204508 / S288c), UniProt P04806)
# T1 sequence (P04806 whole entry): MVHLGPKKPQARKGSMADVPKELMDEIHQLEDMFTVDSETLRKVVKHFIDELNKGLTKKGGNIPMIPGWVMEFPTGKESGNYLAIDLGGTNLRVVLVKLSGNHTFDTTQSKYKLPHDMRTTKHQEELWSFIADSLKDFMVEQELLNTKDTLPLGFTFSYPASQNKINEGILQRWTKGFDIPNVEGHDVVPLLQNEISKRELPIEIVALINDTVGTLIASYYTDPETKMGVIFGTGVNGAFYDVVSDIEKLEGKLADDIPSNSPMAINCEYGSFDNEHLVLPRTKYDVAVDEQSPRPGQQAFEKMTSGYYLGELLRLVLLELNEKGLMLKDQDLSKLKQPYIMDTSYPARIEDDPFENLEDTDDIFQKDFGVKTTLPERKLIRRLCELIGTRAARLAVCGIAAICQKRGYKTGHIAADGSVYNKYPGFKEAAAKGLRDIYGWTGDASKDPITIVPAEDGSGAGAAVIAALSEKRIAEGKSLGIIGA
# Assay: Enzyme Inhibition Assay
# Conditions: pH 7.6; 25 °C
# Procedure: The assay phosphotransferase activity was followed spectrophotometrically b reduction of NADP in the presence of an excess of glucose-6-phosphate-dehydrogenase (method A). ATPase activity was measured by spectrophotometric measurement of the rate of oxidation of NADH in the presence of phospho-enol-pyruvate, pyruvated-kinase and lactate-dehydrogenase (method B).
row,IC50,SMILES
1,7 mM,"O=C(N[C@@H]1[C@@H](O)[C@H](O)[C@@H](CO)O[C@H]1O)c1ccccc1 [Glucosamine analog, 1]"
2,8 mM,"Cc1ccccc1C(=O)N[C@@H]1[C@@H](O)[C@H](O)[C@@H](CO)O[C@@H]1O [Glucosamine analog, 2]"
3,18 mM,"CC(=O)Nc1ccccc1C(=O)NC1C(O)OC(CO)C(O)C1O (configuration not stated) [Glucosamine analog, 4]"
4,3 mM,"O=C(NC1C(O)OC(CO)C(O)C1O)c1ccccc1[N+](=O)[O-] (configuration not stated) [Glucosamine analog, 7]"
5,6 mM,"O=C(NC1C(O)OC(CO)C(O)C1O)c1cccc([N+](=O)[O-])c1 (configuration not stated) [Glucosamine analog, 8]"
6,1 mM,"Nc1ccccc1C(=O)NC1C(O)OC(CO)C(O)C1O (configuration not stated) [Glucosamine analog, 9]"
7,6 mM,"Nc1cccc(C(=O)NC2C(O)OC(CO)C(O)C2O)c1 (configuration not stated) [Glucosamine analog, 10]"
